Results taken from patent US7838530B2, “Quinazoline derivatives as antiproliferative agents” (AstraZeneca AB, priority 2003, dated 2010).

What was measured:
[1] = target: T1, EGFR tyrosine kinase enzyme (Homo sapiens, UniProt P00533); assay: Protein tyrosine kinase phosphorylation assay, Test (a); format: biochemical; conditions: ATP at Km concentration; read-out: IC50 (nM) Test (a) (inhibition of tyrosine kinase protein phosphorylation)
T1 construct: Recombinant intracellular fragments of EGFR, erbB2 and erbB4; made in house; host or cells: baculovirus/Sf21 insect cells
Procedure: This test measures the ability of a test compound to inhibit the phosphorylation of a tyrosine containing polypeptide substrate by EGFR tyrosine kinase enzyme.
Recombinant intracellular fragments of EGFR, erbB2 and erbB4 (accession numbers X00588, X03363 and L07868 respectively) were cloned and expressed in the baculovirus/Sf21 system. Lysates were prepared from these cells by treatment with ice-cold lysis buffer (20 mM N-2-hydroxyethylpiperizine-N′-2-ethanesulfonic acid (HEPES) pH7.5, 150 mM NaCl, 10% glycerol, 1% Triton X-100, 1.5 mM MgCl2, 1 mM ethylene glycol-bis(β-aminoethyl ether) N′,N′,N′,N′-tetraacetic acid (EGTA), plus protease inhibitors and then cleared by centrifugation.
Constitutive kinase activity of the recombinant protein was determined by its ability to phosphorylate a synthetic peptide (made up of a random co-polymer of Glutamic Acid, Alanine and Tyrosine in the ratio of 6:3:1). Specifically, Maxisorb™ 96-well immunoplates were coated with synthetic peptide (0.2 μg of peptide in a 100 μl phosphate buffered saline (PBS) solution and incubated at 4° C. overnight). Plates were washed in PBS-T (phosphate buffered saline with 0.5% Tween 20) then in 50 mM HEPES pH 7.4 at room temperature to remove any excess unbound synthetic peptide. EGFR, ErbB2 or ErbB4 tyrosine kinase activity was assessed by incubation in peptide coated plates for 20 minutes at 22° C. in 100 mM HEPES pH 7.4, adenosine trisphosphate (ATP) at Km concentration for the respective enzyme, 10 mM MnCl2, 0.1 mM Na3VO4, 0.2 mM DL-dithiothreitol (DTT), 0.1% Triton X-100 with test compound in DMSO (final concentration of 2.5%). Reactions were terminated by the removal of the liquid components of the assay followed by washing of the plates with PBS-T.
The immobilised phospho-peptide product of the reaction was detected by immunological methods. Firstly, plates were incubated for 90 minutes at room temperature with anti-phosphotyrosine primary antibodies that were raised in the mouse (4G10 from Upstate Biotechnology). Following extensive washing, plates were treated with Horseradish Peroxidase ([…]) conjugated sheep anti-mouse secondary antibody (NXA931 from Amersham) for 60 minutes at room temperature. After further washing, HRP activity in each well of the plate was measured colorimetrically using 22′-Azino-di-[3-ethylbenzthiazoline sulfonate (6)] diammonium salt crystals (ABTS™ from Roche) as a substrate.
Quantification of colour development and thus enzyme activity was achieved by the measurement of absorbance at 405 nm on a Molecular Devices ThermoMax microplate reader. Kinase inhibition for a given compound was expressed as an IC50 value. This was determined by calculation of the concentration of compound that was required to give 50% inhibition of phosphorylation in this assay. The range of phosphorylation was calculated from the positive (vehicle plus ATP) and negative (vehicle minus ATP) control values.

KB cells = assay: EGFR driven KB cell proliferation assay, Test (b); format: cell-based; conditions: Homo sapiens, 96 h, EGF 1 ng/ml, incubation for 4 days, MTT
Procedure: This assay measures the ability of a test compound to inhibit the proliferation of KB cells (human naso-pharangeal carcinoma obtained from the American Type Culture Collection (ATCC).
KB cells (human naso-pharangeal carcinoma obtained from the ATCC were cultured in Dulbecco's modified Eagle's medium (DMEM) containing 10% foetal calf serum, 2 mM glutamine and non-essential amino acids at 37° C. in a 7.5% CO2 air incubator. Cells were harvested from the stock flasks using Trypsin/ethylaminediaminetetraacetic acid (EDTA). Cell density was measured using a haemocytometer and viability was calculated using trypan blue solution before being seeded at a density of 1.25×10^3 cells per well of a 96 well plate in DMEM containing 2.5% charcoal stripped serum, 1 mM glutamine and non-essential amino acids at 37° C. in 7.5% CO2 and allowed to settle for 4 hours.
Following adhesion to the plate, the cells are treated with or without EGF (final concentration of 1 ng/ml) and with or without compound at a range of concentrations in dimethylsulfoxide (DMSO) (0.1% final) before incubation for 4 days. Following the incubation period, cell numbers were determined by addition of 50 μl of 3-(4,5-Dimethylthiazol-2-yl)-2,5-diphenyltetrazolium bromide (MTT) (stock 5 mg/ml) for 2 hours. MTT solution was then tipped off, the plate gently tapped dry and the cells dissolved upon the addition of 100 μl of DMSO.
Absorbance of the solubilised cells was read at 540 nm using a Molecular Devices ThermoMax microplate reader. Inhibition of proliferation was expressed as an IC50 value. This was determined by calculation of the concentration of compound that was required to give 50% inhibition of proliferation. The range of proliferation was calculated from the positive (vehicle plus EGF) and negative (vehicle minus EGF) control values.

T1 sequence (P00533 669-1210 limits assumed): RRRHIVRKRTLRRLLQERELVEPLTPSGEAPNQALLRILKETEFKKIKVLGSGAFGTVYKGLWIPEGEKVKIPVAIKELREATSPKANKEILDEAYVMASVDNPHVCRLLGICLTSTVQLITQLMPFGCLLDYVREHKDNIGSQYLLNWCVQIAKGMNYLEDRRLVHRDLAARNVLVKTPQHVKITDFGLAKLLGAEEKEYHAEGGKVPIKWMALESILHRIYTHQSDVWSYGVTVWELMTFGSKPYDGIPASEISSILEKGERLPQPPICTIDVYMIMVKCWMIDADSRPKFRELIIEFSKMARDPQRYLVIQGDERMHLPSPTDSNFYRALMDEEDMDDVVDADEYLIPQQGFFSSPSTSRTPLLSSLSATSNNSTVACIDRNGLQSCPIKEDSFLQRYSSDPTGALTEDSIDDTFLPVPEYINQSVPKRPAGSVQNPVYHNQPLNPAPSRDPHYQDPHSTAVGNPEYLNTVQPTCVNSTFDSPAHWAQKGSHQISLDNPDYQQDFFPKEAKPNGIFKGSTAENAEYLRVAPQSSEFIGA

SMILES: COc1cc2ncnc(Nc3cccc(Cl)c3F)c2cc1OC1CCN(C(=O)c2ccno2)CC1 [Compound 1, N-(3-chloro-2-fluorophenyl)-6-{[1-(isoxazol-5-ylcarbonyl)piperidin-4-yl]oxy}-7-methoxyquinazolin-4-amine]
- IC50 [1]: < 1 nM
- IC50 (KB cells): 17 nM

SMILES: COc1cc2ncnc(Nc3cccc(Cl)c3F)c2cc1OC1CCN(C(=O)c2ccccn2)CC1 [Compound 10, N-(3-chloro-2-fluorophenyl)-7-methoxy-6-{[1-(pyridin-2-ylcarbonyl)piperidin-4-yl]oxy}quinazolin-4-amine]
- IC50 [1]: 14 nM
- IC50 (KB cells): 16 nM

SMILES: COc1cc2c(Nc3cccc(Cl)c3F)ncnc2cc1OC1CCN(C(=O)Cc2cc(C)no2)CC1 [Compound 33, N-(3-chloro-2-fluorophenyl)-6-methoxy-7-({1-[(3-methylisoxazol-5-yl)acetyl]piperidin-4-yl}oxy)quinazolin-4-amine]
- IC50 [1]: 15 nM
- IC50 (KB cells): 47 nM

SMILES: COc1cc2c(Nc3cccc(Cl)c3F)ncnc2cc1OC1CCN(C(=O)c2cccnc2)CC1 [Compound 34, N-(3-chloro-2-fluorophenyl)-7-{[1-(pyridin-3-ylcarbonyl)piperidin-4-yl]oxy}-6-methoxyquinazolin-4-amine]
- IC50 [1]: 43 nM
- IC50 (KB cells): 87 nM

SMILES: COc1cc2ncnc(Nc3cccc(Cl)c3F)c2cc1O[C@@H]1CCCN(C(=O)Cc2cccs2)C1 [Compound 60, N-(3-chloro-2-fluorophenyl)-7-methoxy-6-{[(3R)-1-(2-thienylacetyl)piperidin-3-yl]oxy}quinazolin-4-amine]
- IC50 [1]: < 1 nM
- IC50 (KB cells): 30 nM

SMILES: COc1cc2ncnc(Nc3cccc(Cl)c3F)c2cc1OC1CCN(C(=O)Nc2c(C)noc2C)CC1 [Compound 96, 4-({4-[(3-Chloro-2-fluorophenyl)amino]-7-methoxyquinazolin-6-yl}oxy)-N-(3,5-dimethylisoxazol-4-yl)piperidine-1-carboxamide]
- IC50 [1]: < 1 nM
- IC50 (KB cells): 17 nM
